# Experiment: not given
# Settings: not given
row,logP,Structure (SMILES)
1,3.37,CC1CC2C3CCC4=CC(=O)C=CC4(C)C3(F)C(O)CC2(C)C1(O)C(=O)NCc1ccc([N+](=O)[O-])cc1 (stereo unspecified)
2,3.71,CC1CC2C3CCC4=CC(=O)C=CC4(C)C3(F)C(O)CC2(C)C1(O)C(=O)NCc1ccc(Cl)cc1 (stereo unspecified)
3,3.09,COc1ccccc1CNC(=O)C1(O)C(C)CC2C3CCC4=CC(=O)C=CC4(C)C3(F)C(O)CC21C (stereo unspecified)
4,3.15,COc1cccc(CNC(=O)C2(O)CC3C4CCC5=CC(=O)C=CC5(C)C4(F)C(O)CC32C)c1 (stereo unspecified)
5,3.91,CC(C)CCCCNC(=O)C1(O)C(C)CC2C3CCC4=CC(=O)C=CC4(C)C3(F)C(O)CC21C (stereo unspecified)
6,3.04,COc1ccc(CNC(=O)C2(O)C(C)CC3C4CCC5=CC(=O)C=CC5(C)C4(F)C(O)CC32C)cc1 (stereo unspecified)

# Experiment: method code SF-HPLC, from DOI: 10.1016/s0021-9673(01)84554-4
# Settings: not given
row,logP,Structure (SMILES)
1,2.3,CC1CC2C3CCC4=CC(=O)C=CC4(C)C3(F)C(O)CC2(C)C1(O)C(=O)NCCCCN (stereo unspecified)
2,3.72,CC1CC2C3CCC4=CC(=O)C=CC4(C)C3(F)C(O)CC2(C)C1(O)C(=O)NCCCCCCCCN (stereo unspecified)
3,4.13,CC1CC2C3CCC4=CC(=O)C=CC4(C)C3(F)C(O)CC2(C)C1(O)C(=O)NCCCCCCCCCN (stereo unspecified)
4,2.61,CC1CC2C3CCC4=CC(=O)C=CC4(C)C3(F)C(O)CC2(C)C1(O)C(=O)NCCCCCCN (stereo unspecified)
5,2.29,CC1CC2C3CCC4=CC(=O)C=CC4(C)C3(F)C(O)CC2(C)C1(O)C(=O)NCCCCCC(=O)O (stereo unspecified)
6,1.2,CC1CC2C3CCC4=CC(=O)C=CC4(C)C3(F)C(O)CC2(C)C1(O)C(=O)NCC(=O)O (stereo unspecified)
7,3.94,CCCNCCNC(=O)C1(O)C(C)CC2C3CCC4=CC(=O)C=CC4(C)C3(F)C(O)CC21C (stereo unspecified)

# Same assay, conditions: pH 7.4
row,logD,Structure (SMILES)
1,3.66,CC1CC2C3CCC4=CC(=O)C=CC4(C)C3(F)C(O)CC2(C)C1(O)C(=O)NCCc1ccccc1 (stereo unspecified)
2,2,C#CCNC(=O)C1(O)C(C)CC2C3CCC4=CC(=O)C=CC4(C)C3(F)C(O)CC21C (stereo unspecified)
3,1.51,CC1CC2C3CCC4=CC(=O)C=CC4(C)C3(F)C(O)CC2(C)C1(O)C(=O)NCCO (stereo unspecified)
4,1.41,C[C@@H]1C[C@H]2[C@@H]3CCC4=CC(=O)C=C[C@]4(C)[C@@]3(F)[C@@H](O)C[C@]2(C)[C@@]1(O)C(N)=O
5,2.73,CC1CC2C3CCC4=CC(=O)C=CC4(C)C3(F)C(O)CC2(C)C1(O)C(=O)NCCCl (stereo unspecified)
6,3.93,CC(C)CCCNC(=O)C1(O)C(C)CC2C3CCC4=CC(=O)C=CC4(C)C3(F)C(O)CC21C (stereo unspecified)
7,3.2,CC1CC2C3CCC4=CC(=O)C=CC4(C)C3(F)C(O)CC2(C)C1(O)C(=O)NC(C)(C)C (stereo unspecified)
8,2.89,CC1CC2C3CCC4=CC(=O)C=CC4(C)C3(F)C(O)CC2(C)C1(O)C(=O)NC(CO)c1ccccc1 (stereo unspecified)
9,2.43,CC(C)NC(=O)C1(O)C(C)CC2C3CCC4=CC(=O)C=CC4(C)C3(F)C(O)CC21C (stereo unspecified)
10,4.54,CCCCCCNC(=O)C1(O)C(C)CC2C3CCC4=CC(=O)C=CC4(C)C3(F)C(O)CC21C (stereo unspecified)
11,2.07,CCNC(=O)C1(O)C(C)CC2C3CCC4=CC(=O)C=CC4(C)C3(F)C(O)CC21C (stereo unspecified)
12,1.54,CNC(=O)C1(O)C(C)CC2C3CCC4=CC(=O)C=CC4(C)C3(F)C(O)CC21C (stereo unspecified)
13,3.01,CC(C)CNC(=O)C1(O)C(C)CC2C3CCC4=CC(=O)C=CC4(C)C3(F)C(O)CC21C (stereo unspecified)
14,3.54,CC1CC2C3CCC4=CC(=O)C=CC4(C)C3(F)C(O)CC2(C)C1(O)C(=O)NC1CCCCC1 (stereo unspecified)
15,3.74,CC(C)CCNC(=O)C1(O)C(C)CC2C3CCC4=CC(=O)C=CC4(C)C3(F)C(O)CC21C (stereo unspecified)
16,1.57,CC1CC2C3CCC4=CC(=O)C=CC4(C)C3(F)C(O)CC2(C)C1(O)C(=O)NCC#N (stereo unspecified)
17,3.28,CC1CC2C3CCC4=CC(=O)C=CC4(C)C3(F)C(O)CC2(C)C1(O)C(=O)NCc1ccccc1 (stereo unspecified)
18,1.69,COC(=O)CNC(=O)C1(O)C(C)CC2C3CCC4=CC(=O)C=CC4(C)C3(F)C(O)CC21C (stereo unspecified)
19,2.59,CCCNC(=O)C1(O)C(C)CC2C3CCC4=CC(=O)C=CC4(C)C3(F)C(O)CC21C (stereo unspecified)
20,2.65,CCOC(CNC(=O)C1(O)C(C)CC2C3CCC4=CC(=O)C=CC4(C)C3(F)C(O)CC21C)OCC (stereo unspecified)
21,3.1,CCCCNC(=O)C1(O)C(C)CC2C3CCC4=CC(=O)C=CC4(C)C3(F)C(O)CC21C (stereo unspecified)
22,3.64,CCCCCNC(=O)C1(O)C(C)CC2C3CCC4=CC(=O)C=CC4(C)C3(F)C(O)CC21C (stereo unspecified)
23,3.4,COC(=O)C(Cc1ccccc1)NC(=O)C1(O)C(C)CC2C3CCC4=CC(=O)C=CC4(C)C3(F)C(O)CC21C (stereo unspecified)

# Reference: the SangsterLogP compilation
